What all share (format): biochemical, Bacillus sp. KSM-AP1378
Test [1] relates to alkaline pullulanase Y. The test is described as follows: Effects of metal ions and chelating agents on pullulanase activity (DNS reducing sugar assay). The method, then: (§1) 0.1 ml of enzyme solution was added to 0.9 ml of each substrate solution prepared from each buffer solution containing pullulan (final concentration in the reaction system: 0.25% w/v) and the mixture was reacted at 40°C for 30 minutes. After the reaction, reducing sugars were quantitatively determined by means of the 3,5-dinitro-salicylic acid (DNS) procedure. Specifically, 1.0 ml of a DNS reagent was added to 1.0 ml of reaction mixture and the mixture was heated at 100°C for 5 minutes to develop a color. After cooling, the mixture was diluted by adding 4.0 ml of deionized water. This solution was subjected to colorimetric quantitative analysis at a wave length of 535 nm. One unit (1 U) of enzyme activity was defined as the amount of enzyme which released 1 µmol of reducing sugar (as glucose) per minute under the standard assay conditions.

The subject of test [2] is alkaline pullulanase Y. Kind of test: Effects of metal ions and chelating agents on α-amylase activity (DNS reducing sugar assay). The method, then:
as §1, with “soluble starch” for “pullulan”, “50°C” for “40°C”, “15” for “30”, “a DNS method.” for “the 3,5-dinitro-salicylic acid (DNS) procedure.”

The test system of test [3] is alkaline pullulanase Y. Kind of test: Substrate specificity (relative activity on various substrates). Conditions: substrate concentration 1 x 10⁻² M. The protocol:
as §1
Acts on pullulan, soluble starch, and glycogen. (See Table 1) Table 1

On to `[Cl][Mn][Cl]` [MnCl₂], for which the “Residual activity (%) Pullulanase Activity” value in test [1] (metal salt 1 mM) is 51%. For the same compound, the “Residual activity (%) α-amylase Activity” value in test [2] (metal salt 1 mM) is on record as 28%.

`[Cl][Cd][Cl]` [CdCl₂]: in test [1] (metal salt 1 mM), the “Residual activity (%) Pullulanase Activity” value was 80%. In test [2] (metal salt 1 mM), the “Residual activity (%) α-amylase Activity” value is given as 38%.

As to `OC[C@H]1O[C@H](OC[C@H]2O[C@H](OC[C@H]3OC(O)[C@H](O)[C@@H](O)[C@@H]3O)[C@H](O)[C@@H](O)[C@@H]2O)[C@H](O)[C@@H](O)[C@@H]1O` (some centres unmarked) [Isomaltotriose], in test [3], the “Relative Activity (%)” value amounted to 11%.

For `[Cl-].[Cl-].[Zn+2]` [ZnCl₂], the “Residual activity (%) Pullulanase Activity” value in test [1] (metal salt 1 mM) worked out at 93%. Further, in test [2] (metal salt 1 mM), the “Residual activity (%) α-amylase Activity” value is given as 57%.

In the case of `OC[C@H]1O[C@H](OC[C@H]2OC(O)[C@H](O)[C@@H](O)[C@@H]2O)[C@H](O)[C@@H](O)[C@@H]1O` (some centres unmarked) [Isomaltose], the “Relative Activity (%)” value in test [3] was 4%.

In the case of `O=C(O)CN(CCN(CC(=O)O)CC(=O)O)CC(=O)O` [EDTA], the “Residual activity (%) Pullulanase Activity” value in test [1] (chelating agent 10 mM) worked out at 77%.

Turning to HgCl₂, the “Residual activity (%) Pullulanase Activity” value in test [1] (metal salt 1 mM) stood at 36%. For the same compound, the “Residual activity (%) α-amylase Activity” value in test [2] (metal salt 1 mM) is on record as 53%.

For the compound `[Cl][Pb][Cl]` [PbCl₂], the “Residual activity (%) Pullulanase Activity” value in test [1] (metal salt 1 mM) is recorded as 53%. Moreover, in test [2] (metal salt 1 mM), the “Residual activity (%) α-amylase Activity” value came out at 53%.

`OC[C@H]1O[C@H](O[C@H]2[C@H](O)[C@@H](O)C(O)O[C@@H]2CO)[C@H](O)[C@@H](O)[C@@H]1O` (mixture of isomers) [Maltose]: the “Relative Activity (%)” value in test [3] stood at 0%.

`OC[C@H]1O[C@H](O[C@H]2[C@H](O)[C@@H](O)[C@@H](O[C@H]3[C@H](O)[C@@H](O)C(O)O[C@@H]3CO)O[C@@H]2CO)[C@H](O)[C@@H](O)[C@@H]1O` (some centres unmarked) [Maltotriose]: the “Relative Activity (%)” value in test [3] is reported as 0%.

As to `OC[C@H]1O[C@H](OC[C@H]2O[C@H](O[C@H]3[C@H](O)[C@@H](O)C(O)O[C@@H]3CO)[C@H](O)[C@@H](O)[C@@H]2O)[C@H](O)[C@@H](O)[C@@H]1O` (some centres unmarked) [Panose], in test [3], the “Relative Activity (%)” value was 0%.

`O=C(O)CN(CCOCCOCCN(CC(=O)O)CC(=O)O)CC(=O)O` [EGTA]: the “Residual activity (%) Pullulanase Activity” value in test [1] (chelating agent 10 mM) is listed as 65%. Also, the “Residual activity (%) α-amylase Activity” value in test [2] (chelating agent 10 mM) came out at 18%. In addition, the “Residual activity (%) α-amylase Activity when Ca⁺² ions was again added” value in test [2] (chelating agent 10 mM, Ca⁺² ions added again (value in parenthesis)) worked out at 91%.

Regarding `OC[C@H]1O[C@@H](OC[C@H]2OC(O)[C@H](O)[C@@H](O)[C@@H]2O)[C@H](O)[C@@H](O)[C@@H]1O` (some centres unmarked) [Gentiobiose], the “Relative Activity (%)” value in test [3] is 0%.

For the origin of these results see patent publication EP0418835B1, “Novel alkaline pullulanase y having alpha-amylase activity, microorganism producing the same, and process for producing the same” (KAO CORPORATION, priority 1989, dated 1991).
